From US20180009764A1, “METHOD FOR TREATING MACROPHAGE MIGRATION INHIBITORY FACTOR (MIF)-IMPLICATED DISEASES AND CONDITIONS WITH IODO PYRIMIDINE DERIVATIVES” (UNIVERSITY OF LOUISVILLE RESEARCH FOUNDATION, INC., priority 2009, published 2018)
≈ marks a conversion by molar mass, not a printed value.

Key:
[1] = Solubility in varying solvents; type: physicochemical; conditions: 21 °C, 20-22° C.
[2] = system: DU145 human prostate xenografts; test: In vivo efficacy in DU145 xenograft tumor model; parameters: species or system athymic nude mice; conditions: daily IP 40 mg/kg for 4 weeks; FIG. 8
Method: Athymic nude mice at 7-8 weeks of age were used for the study. Mice were housed in microisolator housing, with food and water provided as libitum, and quarantined for 4 days prior to the initiation of the study. DU145 cells were maintained in McCoy's 5A medium supplemented with 10% fetal bovine serum and 2 mM glutamine. Cells at 80% confluence were harvested using 0.25% trypsin/EDTA solution, washed once with PBS and resuspended in a mixture of serum-free medium/Matrigel (1:1 by volume) at a density of 3×10^6 cells/100 μl. 4 groups of 10 mice each were used in the experiment. DU145 cells suspended in 100 μl of a mixture of medium/Matrigel (1:1) were subcutaneously implanted in the right flank region. Animals were monitored for tumor growth daily after cell implantation. When tumor volumes reached 80-100 mm^3, mice were randomized into 4 groups of 10 mice each using only mice having tumor volumes closest to the mean value. Tumor volumes were measured using the formula V=L×W×H×π/6, where L and W represent the longer and shorter diameters of the tumor and H represents the height of the tumor. Treatment began the day after randomization. Act-MIF-001, ACT-MIF-002, and ACT-MIF-003 were administered daily by IP injection at a dose of 40 mg/kg for 4 weeks. Throughout the entire study, tumor volumes were measured twice weekly and body weights once weekly.

[3] = system: primary human T lymphocytes; test: Anti-CD3 induced T lymphocyte activation/proliferation (flow cytometry); type: cell-based; conditions: 25 μM
Method: In order to assess the ability of MIF antagonists to disrupt autoimmune-associated T cell activation, primary human T lymphocytes were prepared using standard Ficoll-gradient preparations. 1×10^6 lymphocytes/ml were resuspended in RPMI/10% FCS and plated onto anti-CD3 antibodies previously immobilized onto tissue culture plates. Control, vehicle control (0.1% DMSO), 25 μM 4-IPP or 25 μM ACT-003 were added to cells and allowed to incubate for 48 hours. Cells were lifted, washed and stained with anti-CD4 or anti-CD8 antibodies and then analyzed by flow cytometry.
To validate the effects of MIF antagonists on T lymphocyte activation, experiments were set up exactly as described above and, 48 hours later, treated and untreated lymphocytes were stained with an anti-CD25 antibody. CD25 is also known as the high affinity IL-2 receptor—a very well characterized and frequently marker of T lymphocyte activation.
In order to investigate the relative kinetics of when 4-IPP and ACT-003 are acting in blocking T lymphocyte activation, we repeated the experiment described above but harvested lymphocytes only 16 hours after anti-CD3 plating. At this early time point during T lymphocyte activation, CD69 is found to be expressed and is usually considered to be an “early marker” of lymphocyte activation.
Finally, to confirm that proliferation of CD4+ and CD8+ T lymphocytes is blocked by 4-IPP-based MIF antagonists, we repeated the experiment as described above, added labeled-BrdU to cells, stained with either labeled anti-CD4 or anti-CD8 antibodies and then assessed relative CD4/CD8 and BrdU labeling in each treatment group.

[4] = system: DU145 human prostate xenografts; test: Microvessel density in xenograft tumors (immunohistochemistry); type: in vivo, athymic nude mice; conditions: end of the DU145 xenograft experiment; FIG. 9
Method: At the end of the experiment described in EXAMPLE 69 above, tumors in each group were removed and sliced. Blood vessel density of the tumor tissues was measured by immunohistochemistry. […] These in vivo results confirmed that the compounds described in this application inhibit angiogenesis.

MIF [5] = target: T1, MIF (Mus musculus, UniProt P34884); test: MIF liver lysates enzymatic activity ex vivo (L-dopachrome tautomerase); conditions: mice; IP 1 mg in corn oil every day for 3 days; livers 6 hours after last injection; FIG. 1
T1 construct: from tissue; host or cells: mouse liver (A7); liver, lung and brain of C57BL6 mice (A20)
Method: This experiment, using an ex-vivo approach and the tautomeric reaction of L-dopachrom, was designed to ascertain the level of inhibition of MIF following administration of the compounds of this invention via oral, IV, IP or any other route of administration. Mice were used in the example illustrated below, but other animals could be used as well. Groups of 3 mice were administered IP 1 mg of 4-IPP and ACT-002 resuspended in 100 μl of corn oil every day for 3 days. Mice were sacrificed 6 hours after the last injection and livers were harvested. ˜1 gram pieces of liver were lysed in PBS containing 1 mM NaVO4, 2 mM NaF and a protease inhibitor cocktail (Roche Biochemical, Indianapolis, Ind.) using dounce-homogenization on ice. 500 μg of liver lysates were added to a final volume of 700 μl PBS in plastic cuvettes. 4 mM L-3, 4-dihydroxyphenylalanine methyl ester and 8 mM sodium periodate (Sigma-Aldrich) were combined in a 3:2 ratio to form L-dopachrome methyl ester. 300 μL of L-dopachrome methyl ester was then immediately added to the cuvettes; the OD475 nm was measured 2 min and 4 min after addition of the L-dopachrome.

MIF [6] = target: T1, MIF; test: Oral bioavailability: ex vivo MIF enzymatic activity in liver, brain and lung after IP and PO dosing; parameters: species or system C57BL6 mice
Method: The compounds were administered orally (PO) and intraperitoneally (IP) to healthy animals. The inhibition of the MIF liver enzymatic activity determined ex vivo following IP and PO dosing is similar, indicating high oral bioavailability. Furthermore, brain and lung tissues were collected and processed to determine MIF enzymatic activity in these organs. […] Inhibition of MIF enzyme was determined […] following dosing of MIF-002 at 40 mg/kg once a day for three days, both IP and PO (normal C57BL6 mice, n=3). Tissues were collected at sacrifice and processed. Liver, lung, and brain tissues were collected, processed, and used for the determination of MIF enzyme activity. Values are expressed as a percentage calculated using DMSO as control (no inhibition).
Two additional compounds were tested, MIF-035 and MIF-041.

Compound	solubility ([1]; aqueous with cosolvent or surfactant or cyclodextrin, Cremophor) [mg/mL]	solubility ([1]; aqueous with cosolvent or surfactant or cyclodextrin, Ethanol/Tween 80) [mg/mL]	solubility ([1]; oil or lipid, Corn oil) [mg/mL]	solubility ([1]; organic solvent or mixture, DMSO) [mg/mL]	solubility ([1]; organic solvent or mixture, Ethanol) [mg/mL]	solubility ([1]; organic solvent or mixture, PEG-300) [mg/mL]	solubility ([1]; organic solvent or mixture, Propane-diol) [mg/mL]	Tumor growth inhibition [2]	CD69 expression ([3]; 16 hours, FIGS. 17 and 18)	CD4 and CD8 T lymphocytes after anti-CD3 activation ([3]; 48 hours, FIGS. 13 and 14)	Anti-CD3-induced CD25 expression ([3]; 48 hours, FIGS. 15 and 16)	BrdU labeling of CD8+ and CD4+ T lymphocytes (proliferation) ([3]; 48 hours, FIGS. 19 and 20)	Microvessel density of tumor tissues [4]	MIF liver enzyme inhibition (MIF [5])	Inhibition of MIF enzymatic activity in brain and lungs (MIF [6]; 40 mg/kg once a day for three days, IP and PO, FIG. 12)	Oral bioavailability (MIF [6]; judged from ex vivo MIF inhibition after IP and PO dosing)	Crossing of the blood brain barrier (MIF [6]; judged from ex vivo MIF inhibition in brain)
Fc1ccccc1-c1cc(I)ncn1 [ACT-MIF-003, 4-Iodo-6-(2-fluorophenyl)pyrimidine]	15 (≈ 50 mM)	20 (≈ 66.7 mM)	15 (≈ 50 mM)	216 (≈ 720 mM)	85 (≈ 283 mM)	66 (≈ 220 mM)	25 (≈ 83.3 mM)	significantly inhibited tumor growth	only a marginal effect on CD69 expression	significantly fewer CD4 and CD8 T lymphocytes	almost completely blocked the anti-CD3-induced CD25 expression	almost completely blocked BrdU labeling in both CD8+ and CD4+ T lymphocytes	decrease in microvessel density with respect to the tumors of the control group with a statistically meaningful difference	–	–	–	–
COc1ccc(-c2cc(I)ncn2)c(F)c1 [ACT-MIF-002, 4-Iodo-6-(2-fluoro-4-methoxyphenyl)pyrimidine]	–	–	–	–	–	–	–	–	–	–	–	–	–	significant in vivo inhibition of MIF	inhibits MIF enzymatic activity in both the brain and the lungs	orally bioavailable	crosses the brain blood barrier
